Measured values as given in article PMC6644700 (ACS chemical biology, 2019).

Biological target: T1, Nicotinamide N-methyltransferase (NNMT) (Homo sapiens, UniProt P40261, C165A)
T1 sequence (P40261 1-264 C165A): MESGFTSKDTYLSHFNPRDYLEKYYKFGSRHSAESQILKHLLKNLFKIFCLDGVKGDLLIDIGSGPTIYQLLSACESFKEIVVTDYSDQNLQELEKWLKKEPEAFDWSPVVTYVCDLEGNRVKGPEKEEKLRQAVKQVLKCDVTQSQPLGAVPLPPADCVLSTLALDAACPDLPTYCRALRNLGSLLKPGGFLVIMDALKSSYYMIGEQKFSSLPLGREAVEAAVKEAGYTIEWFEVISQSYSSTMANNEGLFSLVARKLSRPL
Test: suicide inactivation of purified mutant with SAM
Type: biochemical

SMILES	suicide inactivation of purified mutant with SAM
Clc1ccncc1 [compound 2, 4-chloropyridine]	By contrast, the C165A mutant remained sensitive.
NC(=O)c1cnccc1Cl [compound 3, 4-chloronicotinamide]	By contrast, the C165A mutant remained sensitive.
